{"source": "patent US20260000658A1", "about": "“METHODS FOR THE TREATMENT OF PROLIFERATIVE GLOMERULONEPHRITIS” (INSTITUT NATIONAL DE LA SANTÉ ET DE LA RECHERCHE MÉDICALE, priority 2022, published 2026)", "assay_type_in_all_cases": "in vivo, mouse", "key": {"PIK3CA^Pod-HET mice": {"system": "PIK3CA^Pod-HET mice", "assay": "PIK3CA^Pod-HET mice treated orally with alpelisib", "protocol": "(§1) For the uninephrectomy experiments, the right kidneys were removed under anesthesia. For the medical treatment of mice, 50 mg kg −1 alpelisib (MedChem Tronica) in 1% carboxymethylcellulose (Sigma Aldrich)+0.5% Tween (Sigma Aldrich) or vehicle (1% carboxymethylcellulose+0.5% Tween) was administered by oral gavage daily for the indicated periods of time. Blood and urines were obtained at the indicated times. At euthanasia, blood, urines, kidneys were harvested. In some experiments, spleens, hearts, and bone marrow (BM) in femurs and tibias were harvested as well. Tissues were fixed in 4% paraformaldehyde and paraffin embedded for immunohistochemical analysis, snap-frozen in Optimal Cutting Temperature (OCT), or stored at −80° C. for mRNA or protein analysis.\n(§2) Mouse blood counts were analyzed using a hematology analyzer (ProCyte Dx; IDEXX Laboratories). Mouse serum creatinine, blood urea nitrogen, urinary albumin, and urinary creatinine were evaluated using an AU5800 (Beckman Coulter) autoanalyzer. Serum anti-dsDNA measurement was performed according to the manufacturer's instruction using mouse anti-dsDNA ELISA kit (LBIS). The absorbance was measured using Ininite M Nano (TECAN).\n(§3) 4-μm kidney sections were stained with periodic acid-Schiff (PAS), Masson's Trichrome (MT), Periodic acid metenamine silver (PAM) or Hematoxylin and Eosin (HE) staining for histological analysis. The degree of glomerular lesions was evaluated using the following scoring system: 0=no lesion, 1=affecting up to 25% of the glomerulus, 2=affecting 25-50% of the glomerulus, 3=affecting 50-75% of the glomerulus, and 4=affecting 75-100%. At least 50 glomeruli per sample were measured for each analysis. An indirect immunoperoxidase method was used for immunohistochemistry. Briefly, after deparaffinization, antigen retrieval was performed with citrate buffer (pH6) or Tris-EDTA buffer (pH9 or pH6) using microwave or high temperature (95° C.). Endogenous peroxidase activity was quenched using 3% hydrogen peroxide; nonspecific protein binding was blocked using 2.5% normal horse serum (Vector Laboratories), and endogenous biotin activity was quenched using the Avidin/Biotin Blocking Kit (Vector Laboratories). When using mouse primary antibodies on mouse tissue, Klear mouse blocking reagent (Diagomics) was used to block endogenous mouse immunoglobulins. After blocking, the tissue sections were incubated with the primary antibodies overnight at 4° C. The following primary antibodies were used: rabbit anti-Ki67 antibody (SP6; Thermo Fisher Scientific), rabbit anti-P-S6RP antibody (D68F8; Cell Signaling Technology), mouse anti-P-AKT (Ser473) antibody (587F11; Cell Signaling Technology), rabbit anti-P-AKT (Thr308) antibody (C31E5E; Cell Signaling Technology), mouse anti-S6RP antibody (54E2; Cell Signaling Technology), chicken anti-GFP antibody (Abcam), guinea pig anti-Nephrin antibody (GP-N2; Progen), rabbit anti-Podocin antibody (P0372; Sigma Aldrich), mouse anti-WTI antibody (6F-H2; DAKO). The corresponding secondary antibodies including anti-mouse IgG, anti-rabbit IgG, anti-guinea pig IgG, biotinylated anti-rabbit IgG (Vector Laboratories), and biotinylated anti-mouse IgG (Vector Laboratories) were applied. For Avidin/Biotin detection, an R.T.U. Vectastain Kit (Vector Laboratories) or streptavidin (Thermo Fisher Scientific) was used. The immunoreactive antigens sites were detected with hydrogen peroxide and diaminobenzidine. […]"}, "PIK3CA^Pod-HO mice": {"system": "PIK3CA^Pod-HO mice", "assay": "PIK3CA^Pod-HO mice pilot study, vehicle or alpelisib", "details": "3 months old", "protocol": "as §1, §2, §3"}, "Tg26^HE mice": {"system": "Tg26^HE mice", "assay": "Tg26^HE mice (collapsing glomerulopathy model), vehicle or alpelisib for 8 weeks", "details": "8 weeks treatment", "protocol": "as §1, §2\nas §3, with “diaminobenzidine. For frozen immunofluorescent staining, frozen tissue sections (4 μm) were briefly air dried and fixed in 50% methanol/50% acetone. The sections were then blocked with 2.5% normal horse serum and incubated with primary antibodies: guinea pig anti-Nephrin antibody (GP-N2; Progen) overnight at 4° C. The sections were then incubated at room temperature for 40 min with secondary antibodies: fluorescein isothiocyanate-conjugated (FITC) anti-mouse IgG (Sigma Aldrich), FITC anti-mouse IgM (BD Biosciences), or FITC anti-mouse C3 antibody (abcam).” for “diaminobenzidine.”"}, "[1]": {"details": "3 months old mice, oral, 2-3 weeks"}}}
{"smiles": "Cc1nc(NC(=O)N2CCC[C@H]2C(N)=O)sc1-c1ccnc(C(C)(C)C(F)(F)F)c1", "note": "[alpelisib, Alpelisib]", "values": [{"measurement": "albuminuria", "setting": "PIK3CA^Pod-HET mice; [1]", "result": "progressive reduction in albuminuria"}, {"measurement": "glomerular AKT/mTOR pathway", "setting": "PIK3CA^Pod-HET mice; [1]", "result": "glomerular inhibition of the AKT/mTOR pathway"}, {"measurement": "podocyte size", "setting": "PIK3CA^Pod-HET mice; [1]", "result": "podocyte size reduction"}, {"measurement": "gene expression anomalies (scRNA-seq)", "setting": "PIK3CA^Pod-HET mice; alpelisib-treated PIK3CA^Pod-HET mice", "result": "correction of various gene expression anomalies"}, {"measurement": "podocyte populations (scRNA-seq of kidney cells)", "setting": "PIK3CA^Pod-HET mice; alpelisib-treated, untreated PIK3CA^Pod-HET 23.7%, WT about 10%", "result": 11.7, "unit": "%"}, {"measurement": "albuminuria", "setting": "PIK3CA^Pod-HO mice; 2 consecutive weeks", "result": "progressive albuminuria reduction"}, {"measurement": "AKT/mTOR pathway in podocytes", "setting": "PIK3CA^Pod-HO mice; 2 weeks", "result": "blunted"}, {"measurement": "glomerulus proliferation (Ki67)", "setting": "PIK3CA^Pod-HO mice; 2 weeks", "result": "decrease in glomerulus proliferation"}, {"measurement": "podocyte differentiation markers, protein levels", "setting": "PIK3CA^Pod-HO mice; 2 weeks", "result": "still expressed"}, {"measurement": "glomeruli, kidney histological analysis", "setting": "PIK3CA^Pod-HO mice; 2 weeks, vs vehicle", "result": "preserved glomeruli"}, {"measurement": "albuminuria", "setting": "Tg26^HE mice; 4 weeks old, vs vehicle", "result": "lower albuminuria"}, {"measurement": "AKT/mTOR pathway", "setting": "Tg26^HE mice", "result": "profound AKT/mTOR pathway inhibition"}, {"measurement": "kidney function", "setting": "Tg26^HE mice", "result": "not significantly improved"}, {"measurement": "expression of podocyte differentiation markers", "setting": "Tg26^HE mice; vs vehicle", "result": "higher expression of podocyte differentiation markers"}, {"measurement": "fibrotic markers Col1a and Col3a", "setting": "Tg26^HE mice; vs vehicle", "result": "reduced expression in fibrotic markers"}, {"measurement": "glomerular lesions", "setting": "Tg26^HE mice; vs vehicle", "result": "less severe glomerular lesions"}, {"measurement": "inflammatory marker Tnfa", "setting": "Tg26^HE mice; vs vehicle", "result": "lower expression"}, {"measurement": "kidney volume", "setting": "Tg26^HE mice; vs vehicle", "result": "reduction in kidney volume"}, {"measurement": "tubular injury markers Lcn2 and KIM1", "setting": "Tg26^HE mice; vs vehicle", "result": "lower expression of tubular injury markers"}]}
